Experimental findings from ChEMBL document CHEMBL2412999, “Anticonvulsant properties of histamine H3 receptor ligands belonging to N-substituted carbamates of imidazopropanol” (Bioorg Med Chem Lett, 2013) are described below.

Calls of active or inactive are those of the source. The calls are words filed in the database; no cut-off is given here.

For experiment [1], the system named is Rattus norvegicus. In words: Anticonvulsant activity in Wistar rat assessed as protection against maximum electric shock-induced tonic hind limb extension at 10 to 15 mg/kg, ip. The class given is functional, organism-based. Particulars: Hindlimb.
A further experiment addresses Histamine H4 receptor (Homo sapiens, UniProt Q9H3N8). In words: Displacement of [3H]histamine from human histamine H4 receptor expressed in Sf9 cells co-expressing Gai2 and Gb1c2 subunit.
A further experiment relates to Mus musculus. Put plainly: In vivo inhibition of histamine H3 receptor in po dosed mouse assessed as Nt-methylhistamine level in brain. The format is functional.
The target of a further experiment is Histamine H3 receptor (Homo sapiens, UniProt Q9Y5N1). Put plainly: Displacement of [125I]iodoproxyfan from human histamine H3 receptor expressed in CHO-K1 cells. The class given is cell-based. A general note: In a radioligand displacement assay an active substance lowers the binding of a labelled ligand.
Sequence of Histamine H3 receptor (Q9Y5N1 whole entry): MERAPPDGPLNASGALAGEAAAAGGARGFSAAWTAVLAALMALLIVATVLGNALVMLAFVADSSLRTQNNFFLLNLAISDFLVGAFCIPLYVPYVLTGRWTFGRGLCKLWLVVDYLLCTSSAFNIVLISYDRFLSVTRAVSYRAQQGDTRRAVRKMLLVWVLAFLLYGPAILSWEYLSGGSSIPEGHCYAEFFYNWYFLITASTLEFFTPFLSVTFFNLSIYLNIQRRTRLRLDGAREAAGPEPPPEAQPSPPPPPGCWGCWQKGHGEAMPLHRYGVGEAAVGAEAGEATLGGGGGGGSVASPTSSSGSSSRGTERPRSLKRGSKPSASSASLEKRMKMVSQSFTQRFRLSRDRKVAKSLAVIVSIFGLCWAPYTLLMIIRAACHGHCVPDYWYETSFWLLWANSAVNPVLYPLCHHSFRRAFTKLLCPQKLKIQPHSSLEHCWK
In experiment [2] the test system is Rattus norvegicus. Put plainly: Anticonvulsant activity in Wistar rat assessed as protection against maximum electric shock-induced tonic hind limb extension at 10 mg/kg, ip. The format is functional, organism-based. Details: dose 10 mg/kg. The note with it: Hindlimb.
Experiment [3] has as its target Histamine H2 receptor (Cavia porcellus) (UniProt P47747). In words: Antagonist activity at histamine H2 receptor in guinea pig atrium. The note with it: Cardiac atrium.
In experiment [4] the target is Histamine H1 receptor (Cavia porcellus) (UniProt P31389). Put plainly: Antagonist activity at histamine H1 receptor in guinea pig ileum. The format is tissue-based.
Sequence of Histamine H1 receptor (Cavia porcellus) (P31389 whole entry): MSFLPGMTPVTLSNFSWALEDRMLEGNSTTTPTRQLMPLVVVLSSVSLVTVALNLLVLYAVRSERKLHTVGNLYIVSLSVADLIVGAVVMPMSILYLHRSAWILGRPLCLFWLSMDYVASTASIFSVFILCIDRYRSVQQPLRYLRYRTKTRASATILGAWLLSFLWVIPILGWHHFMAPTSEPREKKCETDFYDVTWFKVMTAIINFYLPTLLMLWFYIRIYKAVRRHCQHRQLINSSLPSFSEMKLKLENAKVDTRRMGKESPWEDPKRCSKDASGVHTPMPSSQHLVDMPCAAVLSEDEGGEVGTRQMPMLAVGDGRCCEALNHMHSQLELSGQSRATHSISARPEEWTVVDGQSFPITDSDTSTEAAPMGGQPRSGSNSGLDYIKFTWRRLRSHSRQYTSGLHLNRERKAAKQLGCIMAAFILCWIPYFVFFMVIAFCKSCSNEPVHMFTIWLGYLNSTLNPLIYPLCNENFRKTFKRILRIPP
In experiment [5] the test system is Rattus norvegicus. In words: Anticonvulsant activity in Wistar rat assessed as protection against maximum electric shock-induced tonic hind limb extension at 15 mg/kg, ip. The format is functional, organism-based. On the set-up: dose 15 mg/kg. The note with it: Hindlimb.
Experiment [6] deals with Rattus norvegicus. Put plainly: Anticonvulsant activity in Wistar rat assessed as protection against pentylenetetrazole-induced seizure at 10 mg/kg, ip after 5 to 10 mins. The format is functional, organism-based. Details: dose 10 mg/kg.
Experiment [7] relates to Rattus norvegicus. Put plainly: Anticonvulsant activity in Wistar rat assessed as protection against maximum electric shock-induced tonic hind limb extension at 5 mg/kg, ip. Details: dose 5 mg/kg. Particulars: Hindlimb. The format is functional, organism-based.
Experiment [8] relates to Rattus norvegicus. In words: Anticonvulsant activity in Wistar rat assessed as protection against maximum electric shock-induced tonic hind limb extension at 10 mg/kg, ip in presence of histamine H1R antagonist pyrilamine. The class given is functional, organism-based. Particulars: Hindlimb. Details: dose 10 mg/kg.
The test system of experiment [9] is Rattus norvegicus. Put plainly: Anticonvulsant activity in Wistar rat assessed as protection against maximum electric shock-induced tonic hind limb extension at 10 mg/kg, ip in presence of histamine H3R agonist RAMH. The class given is functional, organism-based. Details: dose 10 mg/kg. The note with it: Hindlimb.
Experiment [10] relates to Rattus norvegicus. In words: Anticonvulsant activity in ip dosed Wistar rat assessed as protection against maximum electric shock-induced tonic hind limb extension. The class given is functional, organism-based. Particulars: Hindlimb.
Experiment [11] deals with Rattus norvegicus. In words: Anticonvulsant activity in Wistar rat assessed as protection against pentylenetetrazole-induced seizure at 10 mg/kg, ip after 30 mins. The class given is functional, organism-based. Details: dose 10 mg/kg.

Sequence of Histamine H2 receptor (Cavia porcellus) (P47747 whole entry): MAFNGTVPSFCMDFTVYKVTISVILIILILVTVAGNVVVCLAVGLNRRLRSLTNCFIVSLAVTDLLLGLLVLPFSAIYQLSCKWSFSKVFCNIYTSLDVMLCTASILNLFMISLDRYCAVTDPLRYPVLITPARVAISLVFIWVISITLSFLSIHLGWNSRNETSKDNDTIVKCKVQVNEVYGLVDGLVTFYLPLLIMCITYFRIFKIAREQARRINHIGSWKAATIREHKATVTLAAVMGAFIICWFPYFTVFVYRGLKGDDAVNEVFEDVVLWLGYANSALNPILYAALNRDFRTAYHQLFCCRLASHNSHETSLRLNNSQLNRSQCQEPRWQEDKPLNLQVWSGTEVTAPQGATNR
Sequence of Histamine H4 receptor (Q9H3N8 whole entry): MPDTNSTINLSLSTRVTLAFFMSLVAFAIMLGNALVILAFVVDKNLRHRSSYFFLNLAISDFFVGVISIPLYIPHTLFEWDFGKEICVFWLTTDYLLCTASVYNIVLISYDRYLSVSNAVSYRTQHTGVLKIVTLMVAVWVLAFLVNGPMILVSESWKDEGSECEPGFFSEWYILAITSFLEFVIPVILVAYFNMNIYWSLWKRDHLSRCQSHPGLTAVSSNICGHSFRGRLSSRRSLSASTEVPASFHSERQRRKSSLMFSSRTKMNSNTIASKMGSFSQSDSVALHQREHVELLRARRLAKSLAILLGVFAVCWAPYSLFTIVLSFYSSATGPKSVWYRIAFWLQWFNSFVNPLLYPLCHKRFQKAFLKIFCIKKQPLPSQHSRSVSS

As usually defined, the Ki is a dissociation constant, usually derived from enzyme kinetics or from competition with a known ligand. A lower Ki goes with a stronger hold on the target. Usually ED50 stands for the midpoint of the dose-response relation. Consider `CCC(C)CCNC(=O)OCCCc1c[nH]cn1` (stereo not drawn), for which the outcome with Rattus norvegicus [1] and in the experiment with Rattus norvegicus [2] was Active. The Ki was 1.23 µM on Histamine H4 receptor and 0.129 µM on Histamine H3 receptor. Moreover, the ED50 with Mus musculus worked out at 2 mg/kg.
By pKb is commonly meant the Kb on a negative log10 scale, so that one unit is a factor of ten. `O=C(NCCCC1CCCCC1)OCCCc1c[nH]cn1`: the pKb in experiment [3] came out at 4.94; in [4], 4.97. The inhibitory constant (Ki) on Histamine H4 receptor was 4.47 µM; on Histamine H3 receptor, 0.851 µM.
On to `C=CCCCNC(=O)OCCCc1c[nH]cn1`, for which the result in the experiment on Rattus norvegicus [5], in the experiment on Rattus norvegicus [6], in the experiment on Rattus norvegicus [7] and with Rattus norvegicus [2] was Active. Also, the pKb in experiment [3] was found to be 3.6; in [4], 3.9. The result with Rattus norvegicus [8] and with Rattus norvegicus [9] was inactive. Further, the Activity result with Rattus norvegicus [10] was “Dose-dependent effect”. Further, the Ki on Histamine H4 receptor is 41.7 µM; on Histamine H3 receptor, 0.141 µM.
On to `O=C(NCCOc1ccccc1Cl)OCCCc1c[nH]cn1`, for which the values for the inhibition constant (Ki) on Histamine H4 receptor and on Histamine H3 receptor were 16.2 µM and 0.708 µM, respectively. In addition, the ED50 in the experiment on Mus musculus is 2.2 mg/kg. Besides, the outcome with Rattus norvegicus [2] was Active.
Regarding `O=C(NCCc1ccc(Cl)cc1)OCCCc1c[nH]cn1`, the pKb in experiment [3] is 4.41; in [4], 4.82. Moreover, the inhibition constant Ki at Histamine H4 receptor was 6.76 µM; on Histamine H3 receptor, 0.427 µM. The ED50 with Mus musculus came out at 3.1 mg/kg.
As for `O=C1NC(=O)C(c2ccccc2)(c2ccccc2)N1`, in the experiment on Rattus norvegicus [7], the outcome was inactive. The result in the experiment on Rattus norvegicus [11], in the experiment with Rattus norvegicus [1] and with Rattus norvegicus [2] was Active.
Turning to `S=C(NC1CCCCC1)N1CCC(c2cnc[nH]2)CC1`, the pKb in experiment [3] and in [4] was under 5 each time. For the same molecule, in the experiment on Rattus norvegicus [2], the outcome was Active.
As to `O=C(NCCCCC1CCCCC1)OCCCc1c[nH]cn1`, the values for the negative logarithm of the Kb (pKb) in [3] and in experiment [4] were 4.61 and under 5.52, respectively. Moreover, the result in the experiment with Rattus norvegicus [1] and in the experiment on Rattus norvegicus [2] was Active. The Ki is 5.01 µM at Histamine H4 receptor and 1.95 µM on Histamine H3 receptor.
As to `O=C(NCCC1CCCCC1)OCCCc1c[nH]cn1`, the pKb in [3] worked out at 4.49; in [4], 3.96. Moreover, the Ki at Histamine H4 receptor was 1.55 µM; at Histamine H3 receptor it was 0.251 µM.
On to `CCC/C=C/CNC(=O)OCCCc1c[nH]cn1`, for which the Ki was 7.08 µM on Histamine H4 receptor and 0.24 µM on Histamine H3 receptor. Also, the outcome in the experiment on Rattus norvegicus [2] was Active.
In the case of `CC/C=C/CCNC(=O)OCCCc1c[nH]cn1`, the inhibition constant (Ki) at Histamine H4 receptor was 13.2 µM; at Histamine H3 receptor it was 0.257 µM.
Turning to `C=CCCNC(=O)OCCCc1c[nH]cn1`, the pKb in [3] and in experiment [4] was under 4 throughout. Besides, the outcome in the experiment with Rattus norvegicus [1] and in the experiment with Rattus norvegicus [2] was Active. Also, the Ki at Histamine H4 receptor is 3.8 µM.
On to `O=C(NCCCCOc1ccccc1)OCCCc1c[nH]cn1`, for which the pKb was 4.78 in experiment [3] and 4.27 in experiment [4]. The Ki at Histamine H4 receptor was over 100 µM; on Histamine H3 receptor it was 1.05 µM. The ED50 with Mus musculus worked out at 5.8 mg/kg.
In the case of `O=C(NCCCOc1ccccc1)OCCCc1c[nH]cn1`, the pKb is 4.26 in experiment [3] and 4.34 in experiment [4]. Also, the figures for the Ki at Histamine H4 receptor and at Histamine H3 receptor were over 100 µM and 1.29 µM, respectively. Also, in the experiment with Mus musculus, the ED50 was 4.1 mg/kg. The result in the experiment with Rattus norvegicus [2] was Active.
Turning to `COc1ccc(CN(CCN(C)C)c2ccccn2)cc1`, the result with Rattus norvegicus [2] was inactive.
With `O=C(NCCC1CC1)OCCCc1c[nH]cn1`, the pKb in experiment [3] was 3.5; in experiment [4] it was 3.8. In addition, the Ki at Histamine H4 receptor is 1.55 µM; at Histamine H3 receptor it was 0.17 µM.
Regarding `C[C@@H](N)Cc1c[nH]cn1`, in the experiment on Rattus norvegicus [2], the outcome was inactive.
